Converted amounts (≈) assume the structure as drawn. Where two headings read alike, the source gives them in different places.
What was measured:
[1] = type: in vitro ADME; details: pH 7.4
Method: 1 μM compound was incubated with 1 mg/mL of microsomes (Pooled HLM/MLM with 20 mg/ml protein cone.) at 37° C. in 166 μL of buffer (100 mM phosphate buffer, pH-7.4) containing 2 mM NADPH solution. […] The quench plate was centrifuged at 4000 rpm for 15 min. 30 μL of supernatant was diluted to 300 μL with 50% acetonitrile in water and substrate depletion was analyzed using LC-MS/MS.

[2] = system: A549 human lung carcinoma cells; type: cell-based; details: human, 72 h
Method: The in vitro cytotoxicity of compounds were measured against A549 human lung carcinoma cells as describedin Eakin et. al (2012). Briefly, A549 cells (ATCC) were grown in RPMI medium (GIBCO-BRL) containing 10% heat-inactivated fetal bovine serum (GIBCO-BRL) and 1 mM L-glutamine (GIBCO-BRL) at a density of 1,000 cells/well. After incubation of the cells with compound in a CO2 atmosphere at 37° C. for 72 hours, cell viability was determined following addition of […] of resazurin solution (Sigma), by measuring fluorescence (excitation at 535 nm, emission at 590 nm) using a fluorimeter.

[3] = in vitro; type: in vitro ADME; details: plasma
Method: Protein binding is measured using the equilibrium dialysis technique. Compound is added to 10% plasma giving a concentration of 20 μM and dialysed with isotonic buffer for 18 hours at 37° C. The plasma and buffer solutions are analysed using generic LCUVMS and the first apparent binding constant for the compound derived. The binding constant is then used to determine the % free in 100% plasma.

[4] = system: Mycobacterium tuberculosis (Mtb) H37Rv; assay: Mtb minimal bactericidal concentration (MBC), plating from MIC plates; type: cell-based; details: Table 4, read-out: Mtb MBC
Method: Aliquots from sample wells (MIC and higher) from the MIC plates were diluted 1:10 and plated on 7H10 agar plates. Plates were incubated at 37° C. for 3-4 weeks, CFU was enumerated.

[5] = system: Mycobacterium tuberculosis (Mtb) H37Rv ATCC 27294; assay: microbe, parasite or virus in culture; type: cell-based; details: Mycobacterium tuberculosis, read-out: Mtb MIC
[6] = in vivo; details: BALB/c, mouse, 100 mg/kg; for AUC(0-inf) / Cmax: po; for AUC(0-inf): AUC0-∞
Method: ELF PK was performed in healthy mice (three mice/group) as described previously (Solapure et. al, 2013) after administration of a single oral dose of 100 mg/kg compound formulated in 0.5% HPMC, and 0.1% Tween 80 suspensions. […] Broncho-Alveolar Lavage (BAL) was performed after tracheotomy using 0.7 mL of ice-cold PBS. Urea estimation kit, DIUR-500 (Bio-assay Systems, U.S.A) was used for urea estimation in plasma and BAL samples. Volume of ELF was calculated after normalizing the urea concentration in BAL with that of plasma as described in Marry et. al, 2011. Plasma and BAL samples were stored at −20° C. until analysis using LC-MS/MS.
One mg/mL stock solution of each compound was prepared in Dimethylsulfoxide (DMSO) and diluted two-fold with acetonitrile. A sixteen point calibration curve was utilized for each analyte, and the standard curves ranged from 0.001 to 40 μg/mL. Plasma/BAL samples were precipitated by adding chilled acetonitrile (1:10 v/v) containing carbamazepine as internal standard (250 ng/mL). Samples were vortexed, and centrifuged at 4000 rpm for 30 min at 10° C. The resulting supernatant was mixed with mobile phase (50% acetonitrile in water with 0.1% formic acid). […] of sample was injected on to a liquid chromatographic system (Waters-ACQUTY UPLC) coupled to triple quadrupole mass spectrometer (Waters-ACQUTY-TQD; MS/MS). Samples were acquired in positive ion mode and detected by multiple reaction monitoring (MRM). Concentrations of the analyte were determined from a standard curve obtained by plotting known concentrations of the analyte against peak area ratios (analyte/internal standard peak response).
Volume of ELF in the BAL samples was calculated as volume of BAL multiplied by the ratio of urea concentrations in BAL and plasma as described (Solapure et. al, 2013; Marry et. al, 2011) The compound concentration in ELF was calculated by multiplying concentration in BAL samples by the ratio of BAL volume to the ELF volume. AUC0-∞ in plasma and ELF were calculated by Non-compartmental analysis WinNonlin Phoenix Software (version 6.2; Pharsight, USA). Free plasma AUC was calculated after multiplying concentrations at each time point by the free fraction in plasma. Lung ELF penetration ratio was calculated as a ratio of AUC0-∞ in ELF to free AUC0-∞ in free plasma/total plasma during the same time interval. This ratio, measured in healthy mice after single dose administration, was assumed to remain constant during multiple dose efficacy study in the infected mice. Sparse sample analysis in WinNonlin was used for estimating standard error (SE) associated with AUC estimate.

[7] = infected BALB/c mice, acute efficacy, +ABT
[8] = in vivo; details: BALB/c, mouse, po
[9] = pH 7.4
Method: Octanol-water partition coefficient (Log D) based on the shake-flask principle has been measured as follows. The aqueous solution used was 10 mM sodium phosphate buffer pH 7.4. 20 μL of 10 mM compound dissolved in DMSO was taken in glass vial plate. DMSO was removed using GeneVac. 435 μL of octanol was added using Tomtec, stirred for 5 min to dissolve. Further mixing was done by inversion for 5 h at 25° C., subsequently centrifuged for 30 min at 3000 RPM. LC/UV/APPI/MS quantitation of both aqueous and octanol layers was carried out. Log D value was determined according to the following equation.

[10] = system: hypoxia induced non-replicating persistent (NRP) Mtb cells; assay: Activity against hypoxia induced non-replicating persistent (NRP) Mtb (HBC, Wayne model); type: cell-based, Mycobacterium tuberculosis
[11] = physchem; type: physicochemical; details: 25 °C, pH 7.4, aqueous buffer, thermodynamic from solid
Method: Solubility of the compounds in 0.1M phosphate buffer, pH 7.4 was determined as described, Glyburide was used as QC standard in the assay. Briefly, compounds were diluted in ACN/water (40:60) to desired concentration, samples were dried using Genevac for 4 hrs and subsequently 800 μl of buffer was added. Compound containing plates were stirred for 24 hrs at 25° C. on Eppendorf Thermomix R at 750 rpm. Finally, compound concentration was estimated using UV and MS analysis.

With COc1ncnc(Cn2cc(C(=O)NCCF)c3ncccc32)c1C [Compound 3, N-(2-fluoroethyl)-1-((6-methoxy-5-methylpyrimidin-4-yl)methyl)-1H-pyrrolo[3,2-b]pyridine-3-carboxamide] the “Human CLpred microsomes (% LBF)” value [1] was 10.4 % LBF, the “MMIC (A549)” value [2] was over 100 µM and the fraction unbound at 18 h, 20 μM ([3]; human) was 0.05 to 0.22. The “Human PPB (% free)” value [3] was 9.8 % free, the MBC [4] was 1.56 to 3.12 µM (≈ 0.536 to 1.07 µg/mL) and the MIC ([5]; Table 1) was 1.56 µM (≈ 0.536 µg/mL). It also gave an MIC ([5]; Table 4) of 1.56 to 3.12 µM (≈ 0.536 to 1.07 µg/mL), a Kp ([6]; ELF penetration ratio (based on free plasma AUC)) of 7.29 to 26.1 and a Kp ([6]; ELF penetration ratio (based on total plasma AUC)) of 0.6 to 1.97. The AUC(0-inf) ([6]; ELF) was 713 ± 176 µM·h, the AUC(0-inf) ([6]; Plasma) was 573 ± 78.8 µM·h and the AUC(0-inf) ([6]; fPlasma) was 43.5 ± 5.96 µM·h. For the same compound, the Cmax ([6]; ELF) was 74 ± 3.77 µM, the Cmax ([6]; Plasma) was 63.8 ± 7.37 µM and the Cmax ([6]; fPlasma) was 4.85 ± 0.56 µM. For the same compound, the “% T > MIC” value ([7]; multiple oral doses 50 mg/kg) was 58%, the “% fT > MIC” value ([7]; multiple oral doses 50 mg/kg) was 23% and the “% T > MIC” value ([7]; multiple oral doses 100 mg/kg) was 66%. For the same compound, the “% fT > MIC” value ([7]; multiple oral doses 100 mg/kg) was 41%, the AUC [8] was 200 to 700 µM·h and the AUC(0-inf) ([8]; 30 mg/kg) was 252 ± 64 µM·h. The Cmax ([8]; 30 mg/kg) was 32.8 ± 14.4 µM, the half-life ([8]; 30 mg/kg) was 4.46 ± 0.16 h and the logD [9] was 2.1. The “activity against non-replicating Mtb under hypoxic conditions” value ([10]; cidality measured as HBC in Wayne model) was “moderate activity”, the “Mtb HBC” value ([10]; hypoxic conditions, Wayne model, Table 4) was 50 µM and the solubility at 24 h [11] was 8 µM (≈ 2.75 µg/mL).

From US9163020B2, “Azaindole compounds, synthesis thereof, and methods of using the same” (Global Alliance for TB Drug Development, priority 2013, dated 2015)
